The results in this text go back to patent publication US7674471B2, “Topical composition, topical composition precursor, and methods for manufacturing and using” (Skinvisible Pharmaceuticals, Inc., priority 2001, dated 2010).

A short description of the data set: solubility in water or solvents. The text has this:
In addition, β-cyclodextrin is a relatively small molecule with all of its —OH groups lying on the outside of the molecule. If all of the —OH groups formed complexes with pyrrolidone groups, none would be available to promote water solubility.

For the substance Polyvinylpyrrolidone [PVP], the solubility in water entry is “quite water soluble”. To Dextran-70 belongs “extremely soluble in water”.
